Patent US20090221664A1, “PHARMACEUTICAL COMPOSITIONS OF MUSCARINIC RECEPTOR ANTAGONISTS” (priority 2005, published 2009)

Tested on: carbachol precontracted guinea-pig isolated trachea
Experiment: In-vitro functional assay: relaxation of carbachol precontracted guinea-pig isolated trachea by PDE-IV inhibitors with or without MRA preincubation
Conditions: for Potentiation of relaxant activity by preincubation with C No. 66: C No. 66 at 1 nM before contraction with carbachol
Procedure: Guinea Pigs (400-600 gm) were procured and trachea was removed under anesthesia (sodium pentobarbital, 300 mg/kg i.p) and immediately kept in ice-cold Krebs Henseleit buffer. Indomethacin (10 uM) was present throughout the KH buffer to prevent the formation of bronchoactive prostanoids.
The tissue of adherent fascia was removed and cut into strips of equal size (with approx. 4-5 tracheal rings in each strip). The epithelium was removed by careful rubbing, minimizing damage to the smooth muscle. […] Opposite ends of the cut rings were tied with the help of a thread. The tissue was mounted in isolated tissue baths containing 10 ml Krebs Henseleit buffer maintained at 37° C. and bubbled with carbogen, at a basal tension of 1 gm. The buffer was changed 4-5 times for about an hour. Equilibration of the tissue was done for 1 hr for stabilization. After 1 hr, the tissue was challenged with 1 μM carbachol. This was repeated after every 2-3 washes till two similar consecutive responses were obtained. At the end of stabilization, the tissues were incubated with suboptimal dose of MRA/Vehicle for 20 minutes prior to contraction of the tissues with 1 μM carbachol. The relaxant activity of the PDE-IV inhibitor [10^−9M to 10^−4 M] on the stabilized developed tension/response was subsequently assessed. The contractile response of tissues was recorded either on Powerlab data acquisition system or on Grass polygraph (Model 7). The relaxation was expressed as percentage of maximum carbachol response and EC25 was calculated as the concentration producing 25% of the maximum relaxation to 1 μM carbachol. The percent relaxation between the treated and control tissues were compared using non-parametric unpaired t-test. A p value of <0.05 is considered to be statistically significant.

[1] = PDE-IV inhibitor alone, concentration producing 25% of the maximum relaxation to 1 μM carbachol
[2] = relaxation by the PDE-IV inhibitor in the presence of C No. 66 (1 nM preincubation), 1 μM carbachol

| Structure (SMILES) | Potentiation of relaxant activity by preincubation with C No. 66 | - Log[EC25] [1] | EC25 [1] [µM] | - Log[EC25] [2] |
| --- | --- | --- | --- | --- |
| COc1ccc(C2=NO[C@]3(CCOC3)C2)cc1OC1CCCC1 [Compound No. 124aa, (S)-3-[3-(cyclopentyloxy)-4-methoxyphenyl]-1,7-dioxa-2-azaspiro[4.4]non-2-ene] | potentiated | 4.40 | 41.8 | 5.53 |
| O=C(Nc1c(Cl)cncc1Cl)c1ccc(OC(F)F)c(OCC2CC2)c1 [Roflumilast] | potentiated | 4.46 | 44.2 | 6.25 |
| COc1ccc(C2CNC(=O)C2)cc1OC1CCCC1 (centres unmarked) [Rolipram] | no significant potentiation | 5.25 | 7.6 |  |
